Patent US8242203B2, “Covalently attached nile blue derivatives for optical sensors” (priority 2005, dated 2012)
Where two headings read alike, the source gives them in different places.

What was measured:
[1] = comparison value, cited from earlier work
[2] = Leaching of chromoionophore from ISE membrane during conditioning and measurement; type: physicochemical; details: conditioning in contact with buffer and measurements
Method: ISE Membrane Preparation and Measurements. ISE membranes were prepared by dissolving chromoionophore (10 mmol/kg), NaTFPB (2 mmol/kg), PVC and plasticizer (DOS or NPOE) to give a total cocktail mass of 140 mg in 1.5 mL of THF. The cocktail of the membrane with grafted chromoionophore contained 2 mmol/kg NaTFPB, 10 wt % MMA-DMA polymer with grafted indicators, PVC and plasticizer (DOS or NPOE). Cocktails were poured into glass rings (2.2 cm i.d.) affixed onto glass microscope slides.
The solvent was evaporated overnight to give a transparent membrane. The parent membranes were then conditioned for at least 12 hours in pH buffered solutions. For pH titrations, buffer solutions are 10 mM citric acid and 10 mM boric acid with the indicated concentrations of NaCl (either 10 mM or 0.1 mM) adjusted to pH 1.5 by 1 M standard HCl, or 10 mM phosphate buffer solution with NaCl as background. The solution was titrated with a 0.1 M standard NaOH solution and a pH electrode was used to monitor the sample pH. All experimental results given are the average of at least three electrodes, with calculated standard deviations.
The first polymerizable chromoionophore NB1 is a derivative of the highly basic oxazine-dye molecule Nile Blue attached to a acryloyloxybenzoyl group. The pH responses of NB1 based ion selective electrode (“ISE”) membranes were investigated first. […]

leaching of the dye from the ISE membrane [2] | SMILES | pKa ([1]; PVC-DOS) | pKa ([1]; PVC-NPOE)
 | CCCCCCCCCCCCCCCCCC(=O)N=c1cc2oc3cc(N(CC)CC)ccc3nc-2c2ccccc12 [ETH 5294, 9-(diethylamino)-5-octadecanoylimino-5H-benzo[a]phenoxazine] | 11.4 | 14.8
found to leach from the membrane | C=CC(=O)Oc1ccc(C(=O)/N=c2/cc3oc4cc(N(CC)CC)ccc4nc-3c3ccccc23)cc1 [NB1] |  | 
